Experimental data taken from paper PMC11659888, “Structural Evidence for DUF512 as a Radical S-Adenosylmethionine Cobalamin-Binding Domain” (ACS Bio & Med Chem Au, 2024).

Tests used:
pfDUF512 [1] = biological target: T1, pfDUF512 (Pyrococcus furiosus, UniProt Q8U2I5); assay: X-ray crystal structure; type: binding; settings: 5 mM SAH in crystallisation, anoxic, with [4Fe-4S], cobalamin and 5'-dA; poor density for ribosyl and methionyl moieties
T1 construct: gene PF0849; full length, 358 residues (1-357 modelled); E. coli, SUMO tag cut with Ulp1, one extra N-terminal His left; monomer; [4Fe-4S]
T1 sequence (Q8U2I5 1-357): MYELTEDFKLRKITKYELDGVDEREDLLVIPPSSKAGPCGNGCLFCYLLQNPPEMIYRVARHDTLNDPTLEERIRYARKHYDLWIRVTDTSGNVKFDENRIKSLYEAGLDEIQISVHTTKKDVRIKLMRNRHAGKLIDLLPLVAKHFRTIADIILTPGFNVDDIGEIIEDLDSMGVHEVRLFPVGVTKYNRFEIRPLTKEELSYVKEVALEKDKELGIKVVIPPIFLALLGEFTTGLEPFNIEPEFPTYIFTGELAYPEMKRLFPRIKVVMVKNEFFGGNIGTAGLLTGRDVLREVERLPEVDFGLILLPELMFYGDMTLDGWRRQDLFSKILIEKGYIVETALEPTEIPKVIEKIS

pfDUF512 [2] = biological target: T1, pfDUF512; assay: methylation of bound cobalamin, MeCbl and […]'-dA detected; type: biochemical; settings: titanium(III) citrate, 5 min
acDUF512 = biological target: T2, acDUF512 (Acinetobacter sp. CAG:196_36_41, UniProt Z9P1A2K5F3); assay: methylation of bound cobalamin, MeCbl, SAH and […]'-dA quantified; type: biochemical; settings: titanium(III) citrate, 5 min
T2 construct: full-length gene, E. coli, SUMO tag cut with Ulp1; monomer; FeS cluster
T2 sequence (Z9P1A2K5F3 1-422): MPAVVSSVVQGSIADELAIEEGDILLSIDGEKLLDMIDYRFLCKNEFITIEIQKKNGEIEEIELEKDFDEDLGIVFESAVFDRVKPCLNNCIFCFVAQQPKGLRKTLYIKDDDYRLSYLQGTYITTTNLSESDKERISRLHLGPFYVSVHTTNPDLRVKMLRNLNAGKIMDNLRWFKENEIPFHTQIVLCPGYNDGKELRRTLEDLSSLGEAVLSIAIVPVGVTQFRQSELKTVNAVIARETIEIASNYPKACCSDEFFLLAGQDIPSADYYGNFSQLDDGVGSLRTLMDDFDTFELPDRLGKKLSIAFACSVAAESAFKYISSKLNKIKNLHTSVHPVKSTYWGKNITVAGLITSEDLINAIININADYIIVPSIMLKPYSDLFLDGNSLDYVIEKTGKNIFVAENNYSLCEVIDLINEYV

csDUF512 = biological target: T3, csDUF512 (Clostridium sporogenes, UniProt Z9WP26CAS3); assay: as above; type: biochemical; settings: titanium(III) citrate, 5 min
T3 construct: full length, 444 residues (1-443 modelled); E. coli, SUMO tag cut with Ulp1; monomer; [4Fe-4S]; codon-optimized gene
T3 sequence (Z9WP26CAS3 1-443): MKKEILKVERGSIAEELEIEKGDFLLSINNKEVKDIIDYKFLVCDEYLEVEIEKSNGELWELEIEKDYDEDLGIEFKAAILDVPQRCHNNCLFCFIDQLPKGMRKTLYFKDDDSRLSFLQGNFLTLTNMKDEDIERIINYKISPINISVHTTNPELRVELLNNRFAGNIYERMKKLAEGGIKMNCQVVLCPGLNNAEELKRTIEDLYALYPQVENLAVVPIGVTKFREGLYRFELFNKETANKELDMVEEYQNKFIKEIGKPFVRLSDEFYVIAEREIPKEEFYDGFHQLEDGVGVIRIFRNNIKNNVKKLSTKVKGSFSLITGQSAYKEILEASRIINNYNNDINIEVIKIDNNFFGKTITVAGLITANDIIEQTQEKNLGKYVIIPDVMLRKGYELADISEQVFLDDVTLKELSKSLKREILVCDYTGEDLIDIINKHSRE

SMILES | X-ray crystal structure (pfDUF512 [1]) | methylation of bound cobalamin, MeCbl and 5'-dA detected (pfDUF512 [2]) | methylation of bound cobalamin, MeCbl, SAH and 5'-dA quantified (acDUF512) | methylation of bound cobalamin, MeCbl, SAH and 5'-dA quantified (csDUF512)
Nc1ncnc2c1ncn2[C@@H]1O[C@H](CSCC[C@H](N)C(=O)O)[C@@H](O)[C@H]1O [SAH, S-adenosylhomocysteine] | pfDUF512 was crystallized under anoxic conditions in the presence of SAH |  |  | 
C[S+](CC[C@H](N)C(=O)O)C[C@H]1O[C@@H](n2cnc3c(N)ncnc32)[C@H](O)[C@@H]1O (stereo partly shown) [SAM, S-adenosylmethionine] |  | Upon incubating the four DUF512 proteins with SAM and titanium(III) citrate | Upon incubating the four DUF512 proteins with SAM and titanium(III) citrate | Upon incubating the four DUF512 proteins with SAM and titanium(III) citrate
